Experimental data from the supplement of paper PMC10307832.

The cell lines below were run with C[C@]1(c2nc3c(C(N)=O)cccc3[nH]2)CCCN1 [Veliparib] + C[C@@H](Oc1cc(-c2cnn(C3CCNCC3)c2)cnc1N)c1c(Cl)ccc(F)c1Cl [Crizotinib] (partner 1 µM) (assay: relative viability (nuclei count vs DMSO), 5 days (fraction); higher = more cells survive). Settings: first compound 0.02 µM.
Procedure, shortened: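 Lung cancer cell lines in 1536-well plates got either a single drug or a fixed anchor-drug dose together with five library-drug doses (not always all listed) in √10 steps, by pin tool, on the day after seeding. Nuclei were counted after 5 days, and relative viability is the treated-to-vehicle ratio of nuclei counts. Values are medians of duplicate plates.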
With NCI-H1975 the relative viability was 0.964. In the case of H3255, the relative viability is reported as 0.898. In the case of NCI-H2023, the relative viability is reported as 0.567. NCI-H2405 showed a relative viability of 0.845. Work on SK-LU-1 yielded a relative viability of 1.15. NCI-H1734 showed a relative viability of 0.701. NCI-H1437 gave a relative viability of 0.902. NCI-H596 showed a relative viability of 1.05. With HCC-15 the relative viability was 0.803. EMC-BAC-2 was tested, and the relative viability was 0.771. With IA-LM the relative viability was 0.947. For NCI-H2009, the relative viability was 1.1. COR-L 105 showed a relative viability of 0.881. NCI-H520 gave a relative viability of 0.808. With HCC-78 the relative viability was 0.342. EKVX gave a relative viability of 0.65. EBC-1 gave a relative viability of 0.194. In the case of NCI-H1299, the relative viability is reported as 1.04. PC-14 gave a relative viability of 0.896. LXF-289 showed a relative viability of 0.784. For A549, the relative viability was 0.768. For NCI-H1563, the relative viability was 0.91. NCI-H2228 showed a relative viability of 0.436. NCI-H1703 was tested, and the relative viability was 0.835. With Calu-6 the relative viability was 0.817. NCI-H2170 gave a relative viability of 1.23. SK-MES-1 was tested, and the relative viability was 0.973. For CAL-12T, the relative viability was 0.702. With NCI-H1944 the relative viability was 0.995.

Same assay, conditions: first compound 0.06325 µM
In the case of LU99A, the relative viability is reported as 0.527. NCI-H1975 was tested, and the relative viability was 1.12. With H3255 the relative viability was 0.904. NCI-H2023 was tested, and the relative viability was 0.616. In the case of NCI-H2405, the relative viability is reported as 0.788. With SK-LU-1 the relative viability was 0.924. Work on NCI-H1734 yielded a relative viability of 0.641. NCI-H1437 showed a relative viability of 0.929. With ABC-1 the relative viability was 0.987. For NCI-H596, the relative viability was 0.912. In the case of HCC-15, the relative viability is reported as 0.86. NCI-H460 gave a relative viability of 0.869. EMC-BAC-2 showed a relative viability of 0.649. Cell Line IA-LM has a relative viability of 0.689. With NCI-H2009 the relative viability was 0.934. COR-L 105 gave a relative viability of 0.583. NCI-H520 was tested, and the relative viability was 0.698. For NCI-H358, the relative viability was 0.533. For HCC-78, the relative viability was 0.3. EKVX gave a relative viability of 0.744. EBC-1 was tested, and the relative viability was 0.231. Work on NCI-H1299 yielded a relative viability of 0.945. With NCI-H1650 the relative viability was 0.899. EPLC-272H showed a relative viability of 0.798. LK-2 gave a relative viability of 0.179. PC-14 showed a relative viability of 0.898. In the case of LXF-289, the relative viability is reported as 0.777. With A549 the relative viability was 0.699. In the case of NCI-H1563, the relative viability is reported as 0.762. NCI-H2228 was tested, and the relative viability was 0.405. For NCI-H1703, the relative viability was 0.76. With Calu-6 the relative viability was 0.735. Work on NCI-H2170 yielded a relative viability of 1.24. With SK-MES-1 the relative viability was 0.901. For CAL-12T, the relative viability was 0.542. NCI-H1944 was tested, and the relative viability was 1.04.

Same assay, conditions: first compound 0.2 µM
In the case of LU99A, the relative viability is reported as 0.46. NCI-H1975 gave a relative viability of 0.977. With H3255 the relative viability was 0.814. NCI-H2023 showed a relative viability of 0.635. With NCI-H2405 the relative viability was 0.802. For SK-LU-1, the relative viability was 1.07. Work on NCI-H1734 yielded a relative viability of 0.728. For NCI-H1437, the relative viability was 0.9. Cell Line ABC-1 has a relative viability of 0.846. For NCI-H596, the relative viability was 1.06. In the case of HCC-15, the relative viability is reported as 0.847. Work on NCI-H460 yielded a relative viability of 0.934. With EMC-BAC-2 the relative viability was 0.754. IA-LM showed a relative viability of 0.743. With NCI-H2009 the relative viability was 1.05. COR-L 105 showed a relative viability of 0.921. Cell Line NCI-H520 has a relative viability of 0.697. NCI-H358 was tested, and the relative viability was 0.564. HCC-78 showed a relative viability of 0.409. Cell Line EKVX has a relative viability of 1.04. For EBC-1, the relative viability was 0.213. NCI-H1299 gave a relative viability of 0.95. In the case of NCI-H1650, the relative viability is reported as 1.11. EPLC-272H showed a relative viability of 0.855. LK-2 was tested, and the relative viability was 0.149. PC-14 gave a relative viability of 0.781. In the case of LXF-289, the relative viability is reported as 0.818. Cell Line A549 has a relative viability of 0.792. In the case of NCI-H1563, the relative viability is reported as 0.89. In the case of NCI-H2228, the relative viability is reported as 0.457. NCI-H1703 was tested, and the relative viability was 1.06. Calu-6 showed a relative viability of 0.882. NCI-H2170 was tested, and the relative viability was 1.21. For SK-MES-1, the relative viability was 0.951. Cell Line CAL-12T has a relative viability of 0.589. NCI-H1944 showed a relative viability of 0.951.

Same assay, conditions: first compound 0.6325 µM
LU99A showed a relative viability of 0.44. NCI-H1975 was tested, and the relative viability was 0.93. In the case of H3255, the relative viability is reported as 0.829. NCI-H2023 gave a relative viability of 0.567. NCI-H2405 showed a relative viability of 0.815. SK-LU-1 gave a relative viability of 0.848. For NCI-H1734, the relative viability was 0.623. Cell Line NCI-H1437 has a relative viability of 0.81. ABC-1 gave a relative viability of 0.953. NCI-H596 gave a relative viability of 0.862. HCC-15 gave a relative viability of 0.752. NCI-H460 showed a relative viability of 0.734. EMC-BAC-2 gave a relative viability of 0.737. In the case of IA-LM, the relative viability is reported as 0.753. NCI-H2009 gave a relative viability of 1.03. Work on COR-L 105 yielded a relative viability of 0.786. Cell Line NCI-H520 has a relative viability of 0.713. NCI-H358 gave a relative viability of 0.523. Cell Line HCC-78 has a relative viability of 0.383. EKVX gave a relative viability of 0.977. Cell Line EBC-1 has a relative viability of 0.186. Cell Line NCI-H1299 has a relative viability of 0.928. NCI-H1650 showed a relative viability of 0.81. EPLC-272H was tested, and the relative viability was 0.941. LK-2 gave a relative viability of 0.232. Cell Line PC-14 has a relative viability of 0.766. LXF-289 was tested, and the relative viability was 0.727. With A549 the relative viability was 0.61. NCI-H1563 gave a relative viability of 0.857. NCI-H2228 gave a relative viability of 0.447. With NCI-H1703 the relative viability was 0.778. With Calu-6 the relative viability was 0.691. In the case of NCI-H2170, the relative viability is reported as 1.14. For SK-MES-1, the relative viability was 0.854. CAL-12T gave a relative viability of 0.616. For NCI-H1944, the relative viability was 0.965.

Same assay, conditions: first compound 2 µM
Work on LU99A yielded a relative viability of 0.625. NCI-H1975 was tested, and the relative viability was 0.89. For H3255, the relative viability was 0.969. With NCI-H2023 the relative viability was 0.601. NCI-H2405 showed a relative viability of 0.909. For SK-LU-1, the relative viability was 0.803. Work on NCI-H1734 yielded a relative viability of 0.682. NCI-H1437 was tested, and the relative viability was 0.834. In the case of ABC-1, the relative viability is reported as 0.962. NCI-H596 gave a relative viability of 0.957. HCC-15 showed a relative viability of 0.825. With NCI-H460 the relative viability was 1.02. Work on EMC-BAC-2 yielded a relative viability of 0.779. For IA-LM, the relative viability was 0.75. With NCI-H2009 the relative viability was 1.03. COR-L 105 gave a relative viability of 0.696. For NCI-H520, the relative viability was 0.836. For NCI-H358, the relative viability was 0.618. With HCC-78 the relative viability was 0.352. EKVX gave a relative viability of 0.913. Cell Line EBC-1 has a relative viability of 0.233.
